Laboratory results: article PMC11360180, “Enhancement of Antimicrobial Function by L/D-Lysine Substitution on a Novel Broad-Spectrum Antimicrobial Peptide, Phylloseptin-TO2: A Structure-Related Activity Research Study” (Pharmaceutics, 2024)
Where no end group is shown, it is not given here.

What was measured:
S. aureus (ATCC 6538) = format: cell-based, Staphylococcus aureus; conditions: ATCC 6538, 24 h
From the text: (§1) Seven microorganism strains were used to preliminarily evaluate the antimicrobial activity of PSTO2 and its analogues, including Staphylococcus aureus (S. aureus) (ATCC® 6538), methicillin-resistant Staphylococcus aureus (MRSA) (NCTC® 12493), Enterococcus faecalis (E. faecalis) (NCTC® 12697), E. coli (ATCC® 8739), Klebsiella pneumonia (K. pneumonia) (ATCC® 43816), Pseudomonas aeruginosa (P. aeruginosa) (ATCC® CRM 9027), Acinetobacter baumanni (A. baumanni) (BAA® 747), and Candida albicans (C. albicans) (ATCC® 10231). In this study, the strains were cultured in Mueller–Hinton broth (MHB), nutrient broth (NB), and yeast–peptone–dextrose broth (YPD-B) correspondingly at 37 °C, with shaking at 120 rpm. Each peptide was dissolved from 128 μM to 1 μM and mixed with the bacterium at 5 × 10^5 CFU/mL. In this process, bacteria with culture medium were used as the growth control group; PBS was set up as the vehicle control group; sterile culture medium was used as the blank control group; and Norfloxacin at a concentration of 2 mg/mL and amphotericin B at a concentration of 1 mg/mL were set up as the positive control group for bacteria and fungi, respectively.
(§2) After being incubated for 24 h, a Synergy HT plate reader (Bio-Tek, Shoreline, WA, USA) was used to detect the absorbance of each well in the 96-well plate at λ = 550 nm. The concentration at which no visible turbidity could be recorded was the MIC value. Beginning from the MIC value, 10 µL of solution in each clear well was dropped on the sterile agar plates. The plate was checked the next day for colony formation, and the lowest concentration at which no colony growing was recorded as an MBC value.

A. baumannii (BAA 747) = format: cell-based, Acinetobacter baumanni; conditions: BAA 747, 24 h
From the text: as §1, §2

[1] = test system: K. pneumonia (ATCC 43816); format: cell-based, Klebsiella pneumonia; conditions: ATCC 43816, 24 h
From the text: as §1, §2

[2] = test system: P. aeruginosa (ATCC 9027); format: cell-based, Pseudomonas aeruginosa; conditions: ATCC 9027, 24 h
From the text: as §1, §2

C. albicans = format: cell-based, Candida albicans; conditions: 24 h
From the text: as §1, §2

[3] = test system: MRSA (ATCC 12493) biofilm; format: cell-based, methicillin-resistant Staphylococcus aureus; conditions: ATCC 12493, 24 h
Protocol: To test the anti-biofilm ability of PSTO2 and its analogues, three types of microorganisms (S. aureus ATCC® 6538, E. coli ATCC® 8739, and MRSA NCTC® 12493) were chosen. Tryptic soy broth (TSB) and Lysogeny broth (LB) were used to culture microorganisms. The peptide was dissolved in an autoclaved PBS solution and diluted into concentrations ranging from 51,200 µM to 100 µM. One µL of peptide solution of each concentration was added into a 96-well plate with 100 µL bacterium at 5 × 10^5 CFU/mL. The plate was incubated at 37 °C for 24 h, with shaking at 200 rpm. After overnight incubation, the planktonic bacteria were washed up. Then, 100 µL of methanol was used to fix the biofilms onto the bottom, and 100 µL of 0.1% crystal violet solution (Sigma-Aldrich, Gillingham, UK) was added to each well to stain the biofilms. After drying, 160 µL of acetic acid (30% in deionised water, Sigma-Aldrich, UK) was added to each well to dissolve the shaded parts. The absorbance was detected with the Synergy HT plate reader at λ = 595 nm.
For the MBEC assay, 100 µL of the bacterium of 5 × 10^5 CFU/mL was transferred into an empty 96-well plate, and the plate was incubated at 37 °C for 24 h to obtain the biofilms primarily. Then, the peptide solution from 512 µM to 1 µM was transferred into a corresponding well, followed by 24 h incubation at 37 °C, with shaking at 200 rpm. After this, the plate was handled using the identical method to the plate in the MBIC assay, and the absorbance of each well was detected with the Synergy HT plate reader at λ = 595 nm. The minimum concentration at which the peptide can eradicate the existing biofilm was recorded as the MBEC value.

MCF-7 = format: cell-based, human; conditions: 24 h
Protocol: (§3) The percentage of cancer cell survival after being treated with peptides was assessed with 3-(4,5-dimethylthiazol-2-yl-)-2,5-diphenyltetrazolium bromide (MTT). The principle is the reduction process of the yellow tetrazolium to DMSO-soluble formazan crystals caused by the metabolic capability of living cells. All the cancerous and normal cells were obtained from the American Type Culture Collection (Rockville, VA, USA). Human lung cancer NCI-H838 and NCI-H460 were cultured in Roswell Park Memorial Institute (RPMI)-1640 medium (Gibco, Paisley, UK) and mixed with 10% (v/v) fetal bovine serum (FBS) (Gibco, Campinas, Brazil) and 1% penicillin–streptomycin (Gibco, Grand Island, NY, USA) 89/10/1 v/v/v). U251MG and MCF-7 were cultured in Dulbecco’s Modified Eagle medium (DMEM) (Gibco, Paisley, UK) and mixed with 10% FBS and 1% penicillin–streptomycin. HCT 116 was cultured in McCoy’s 5A (modified) medium (Gibco, Paisley, UK) and mixed with 10% FBS and 1% penicillin–streptomycin. MRC-5 and HaCat were cultured in Minimum Essential Medium (MEM) (Gibco, Paisley, UK) and mixed with 10% FBS and 1% penicillin–streptomycin. Cells were cultured and seeded in a 96-well plate at a density of 8000 cells/well with the corresponding medium and incubated for 24 h at 37 °C with 5% CO2. After 24 h of incubation, the cells were starved with a serum-free medium for 4 h at 37 °C. Then, the cells were incubated with different concentrations of peptide solution in a serum-free medium from 1 nM to 100 µM at 37 °C for 24 h. Meanwhile, triton X-100 (0.1%) (Sigma-Aldrich, St. Louis, MO, USA) and PBS were chosen as positive and negative controls. After 10 µL of MTT (5 mg/mL) was added to each well away from light and incubated at 37 °C for 2 h, the formazan generated by mitochondria was dissolved with DMSO. The absorbance was detected at a wavelength of 570 nm by a Synergy HT plate reader (Bio-Tek, Shoreline, WA, USA).

NCI-H460 = format: cell-based, human; conditions: 24 h
Protocol: as §3

NCI-H838 = format: cell-based, human; conditions: 24 h
Protocol: as §3

U251MG = format: cell-based, human; conditions: 24 h
Protocol: as §3

HaCat = format: cell-based; conditions: 24 h
Protocol: as §3

MRC-5 = format: cell-based; conditions: 24 h
Protocol: as §3

horse red blood cells = format: cell-based
Protocol: To assess the haemolytic activity of PSTO2 and its analogues, 2% fresh defibrinated horse red blood cells (TCS Biosciences Ltd., Buckingham, UK) were acquired after being washed and resuspended in sterile PBS. Each peptide was dissolved in PBS to prepare solutions with concentrations ranging from 2 µM to 1024 µM. Subsequently, 100 µL of each peptide solution was mixed with 100 µL of the red blood cell suspension. The red blood cells treated with 1% triton X-100 and sterile PBS in equivalent volumes were set up as the positive and negative control groups, respectively. Then, all the samples were incubated at 37 °C for 2 h. Thereafter, the samples were centrifuged at 900× g for 10 min. Finally, 100 µL of supernatant of each sample was transferred into a 96-well plate, and the absorbance was recorded by a Synergy HT plate reader (Bio-Tek, Shoreline, WA, USA) at a wavelength of 570. The following equation was used to calculate haemolysis activity:Haemolysis activity = (Sample absorbance − Ab)/(Ap − Ab) × 100% where Ab refers to the mean value of absorbance of the negative control (incubated with PBS only), and Ap refers to the mean absorbance value of the positive control (incubated with triton X-100).

Substance: FLSLIPHAISAVSALAKHL-NH2 [PSTO2, phylloseptin-TO2]
- MBC (S. aureus (ATCC 6538)): 4 µM
- MBC (A. baumannii (BAA 747)): >128 µM
- MIC (A. baumannii (BAA 747)): >128 µM
- MBC [1]: 128 µM
- MIC [1]: 64 µM
- MBC [2]: >128 µM
- MIC [2]: >128 µM
- MBC (C. albicans): 128 µM
- MIC (C. albicans): 32 µM
- MBIC [3]: 4 µM
- IC50 (MCF-7): 23.1 µM
- IC50 (NCI-H460): 78.3 µM
- IC50 (NCI-H838): 85.8 µM
- IC50 (U251MG): 84 µM
- IC50 (HaCat): 70.58 µM
- IC50 (MRC-5): 73.22 µM
- HC10 (horse red blood cells): 21.78
